Test results taken from ChEMBL document CHEMBL4823280, “Efficient Synthesis of Icetexane Diterpenes and Apoptosis Inducing Effect by Upregulating BiP-ATF4-CHOP Axis in Colorectal Cells” (J Nat Prod, 2021).
Calls of active or inactive are those of the source. The calls are words filed in the database; no cut-off is given here.

How the values were obtained:
COLO 205 = experiment: Cytotoxicity against human COLO 205 cells assessed as reduction in cell viability measured after 48 hrs by MTT assay; type: functional, cell-based; details: COLO 205, 48 h
Caco-2 = experiment: Cytotoxicity against human Caco-2 cells assessed as reduction in cell viability measured after 48 hrs by MTT assay; type: functional, cell-based; details: Caco-2, 48 h
HCT-116 [1] = experiment: Cytotoxicity against human HCT-116 cells assessed as reduction in cell viability measured after 48 hrs by MTT assay; type: functional, cell-based; details: HCT-116, 48 h
HCT-116 [2] = experiment: Induction of apoptosis in human HCT-116 cells assessed as necrotic cells at 10 uM measured after 24 hrs by Annexin V-FITC/PI staining based flow cytometry analysis (Rvb= 1.18%); type: functional
HCT-116 [3] = experiment: Induction of apoptosis in human HCT-116 cells assessed as necrotic cells at 5 uM measured after 24 hrs by Annexin V-FITC/PI staining based flow cytometry analysis (Rvb= 1.18%); type: functional
HCT-116 [4] = experiment: Inhibition of colony formation in human HCT-116 cells at 1.25 to 10 uM incubated for 14 days by crystal violet staining based analysis; type: functional, cell-based; details: dose 1.25-10 µM, time 14.0 day
HCT-116 [5] = experiment: Induction of apoptosis in human HCT-116 cells assessed as early apoptotic cells at 5 uM measured after 24 hrs by Annexin V-FITC/PI staining based flow cytometry analysis (Rvb= 7.48%); type: functional
HCT-116 [6] = experiment: Induction of apoptosis in human HCT-116 cells assessed as early apoptotic cells at 10 uM measured after 24 hrs by Annexin V-FITC/PI staining based flow cytometry analysis (Rvb= 7.48%); type: functional
HCT-116 [7] = experiment: Induction of ER stress in human HCT-116 cells assessed as increase in BiP nuclear translocation at 2.5 to 10 uM measured after 6 hrs by DAPI based immunostaining analysis; type: functional, cell-based; details: dose 2.5-10 µM
HCT-116 [8] = experiment: Induction of apoptosis in human HCT-116 cells assessed as viable cells at 10 uM measured after 24 hrs by Annexin V-FITC/PI staining based flow cytometry analysis (Rvb= 88.45%); type: functional; details: read-out: Activity
HCT-116 [9] = experiment: Induction of ER stress in human HCT-116 cells assessed as increase in BiP protein expression measured after 6 hrs by western blotting analysis; type: functional, cell-based; details: dose 5-20 µM
HCT-116 [10] = experiment: Induction of apoptosis in human HCT-116 cells assessed as late apoptotic cells at 5 uM measured after 24 hrs by Annexin V-FITC/PI staining based flow cytometry analysis (Rvb= 2.89%); type: functional
[11] = Stability of the compound in human HCT-116 cells assessed as Demethylsalvicanol-Quione formation measured after 72 hrs by HPLC analysis; type: ADME, cell-based; details: hct-116, 72 h
HCT-116 [12] = experiment: Induction of ER stress in human HCT-116 cells assessed as upregulation of CHOP expression at 5 to 20 uM measured after 6 hrs by western blotting analysis; type: functional, cell-based; details: dose 5-20 µM
HCT-116 [13] = experiment: Induction of ER stress in human HCT-116 cells assessed as upregulation of ATF4 expression at 5 to 20 uM measured after 6 hrs by western blotting analysis; type: functional, cell-based; details: dose 5-20 µM
HCT-116 [14] = experiment: Induction of ER stress in human HCT-116 cells assessed as colocalization of BiP with ATF4 at 20 uM measured after 12 hrs by immunofluorescence staining analysis; type: functional, cell-based
HCT-116 [15] = experiment: Induction of apoptosis in human HCT-116 cells assessed as late apoptotic cells at 10 uM measured after 24 hrs by Annexin V-FITC/PI staining based flow cytometry analysis (Rvb= 2.89%); type: functional
HCT-116 [16] = experiment: Induction of apoptosis in human HCT-116 cells assessed as viable cells at 5 uM measured after 24 hrs by Annexin V-FITC/PI staining based flow cytometry analysis (Rvb= 88.45%); type: functional; details: read-out: Activity

Structure (SMILES)	IC50 (COLO 205)	IC50 (Caco-2)	IC50 (HCT-116 [1])	further results
O=c1[nH]cc(F)c(=O)[nH]1 [FLUOROURACIL]	5.29 µM	7.77 µM	7.38 µM	–
CC(C)C1=CC2=C(C[C@@]34CCCC(C)(C)[C@@H]3C[C@@H]2O4)C(=O)C1=O	10.4 µM	3.86 µM	13.3 µM	–
CC(C)c1cc2c(c(O)c1O)C[C@@]1(O)CCCC(C)(C)[C@@H]1CC2	11.2 µM	3.07 µM	18.8 µM	–
CC(C)c1cc2c(c(O)c1O)C[C@@]13CCCC(C)(C)[C@@H]1C[C@@H]2O3 [BRUSSONOL]	> 20.2 µM	> 20.2 µM	> 20.2 µM	–
CC(C)c1cc2c(c(O)c1O)C=C1C=CCC(C)(C)[C@@H]1CC2	7.81 µM	7.2 µM	10.6 µM	–
CC(=O)Oc1c(C(C)C)cc2c(c1OC(C)=O)CC1=CCCC(C)(C)[C@@H]1CC2	18.5 µM	10.4 µM	18.6 µM	–
CC(=O)Oc1c(C(C)C)cc2c(c1OC(C)=O)C[C@@]13O[C@@H]1CCC(C)(C)[C@@H]3CC2	7.52 µM	13.8 µM	11.1 µM	–
CC(C)c1cc2c(c3c1O[C@@]1(C(C)C)C(=O)C(=O)C4=C(CC[C@H]5C(C)(C)CCC[C@]5(O)C4)[C@H]1O3)C[C@@]1(O)CCCC(C)(C)[C@@H]1CC2	3.39 µM	2.69 µM	2.7 µM	Activity (HCT-116 [2]): 7.97%; Activity (HCT-116 [3]): 5.28%; inhibition (HCT-116 [4]): Active; Activity (HCT-116 [5]): 14.73%; Activity (HCT-116 [6]): 13.38%; Activity (HCT-116 [7]): Active; viability at 10 µM (HCT-116 [8]): 58.8%; Activity (HCT-116 [9]): Dose-Dependent Effect; Activity (HCT-116 [10]): 16.43%; Stabilty [11]: Stable; Activity (HCT-116 [12]): Active; Activity (HCT-116 [13]): Active; Activity (HCT-116 [14]): Active; Activity (HCT-116 [15]): 19.84%; viability at 5 µM (HCT-116 [16]): 63.6%
CC(C)c1cc2c(c(O)c1O)CC1=CCCC(C)(C)[C@@H]1CC2	> 20.9 µM	13.7 µM	> 20.9 µM	–
CC(C)C1=CC2=C(C[C@@]3(O)CCCC(C)(C)[C@@H]3CC2)C(=O)C1=O	3.18 µM	2.71 µM	2.93 µM	–
